A word on the DC50: it is the midpoint of the concentration-degradation curve. In general, Dmax refers to the largest share of the target that was removed.

Like-named read-outs stand apart in the source and are kept apart here. Some results are limits rather than exact numbers.

The assay has as its target T1, BRD9 (Homo sapiens, UniProt Q9H8M2).
T1 sequence (Q9H8M2 1-597): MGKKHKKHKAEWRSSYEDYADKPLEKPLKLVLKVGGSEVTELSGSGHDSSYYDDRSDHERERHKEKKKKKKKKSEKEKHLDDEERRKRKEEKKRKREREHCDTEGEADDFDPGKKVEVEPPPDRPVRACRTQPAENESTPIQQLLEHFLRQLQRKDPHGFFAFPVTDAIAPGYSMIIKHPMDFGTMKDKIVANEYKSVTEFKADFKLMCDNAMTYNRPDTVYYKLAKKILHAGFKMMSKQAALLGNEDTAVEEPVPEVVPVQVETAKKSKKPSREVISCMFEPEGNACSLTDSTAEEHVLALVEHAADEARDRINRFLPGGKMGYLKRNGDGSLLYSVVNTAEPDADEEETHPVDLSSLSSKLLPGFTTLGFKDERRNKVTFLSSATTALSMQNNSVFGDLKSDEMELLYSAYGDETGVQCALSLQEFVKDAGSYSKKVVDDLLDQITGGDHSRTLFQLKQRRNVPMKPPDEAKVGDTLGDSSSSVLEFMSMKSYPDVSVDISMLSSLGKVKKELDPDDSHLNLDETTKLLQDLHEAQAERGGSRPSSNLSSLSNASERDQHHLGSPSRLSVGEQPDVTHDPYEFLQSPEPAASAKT
In words: Degradation of BRD9 (IF), immunofluorescence in MV4-11 cells, 24 hours (Assay Protocol 2). On the set-up: A suspension of MV4-11 cells (ATCC CRL-9591) was prepared; host or cells: MV4-11. Conditions: BRD9 degradation; for DC50: read-out: DC50. It counts as cell-based. The essentials:
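% BRD9 remaining, scaled between DMSO (high) and 100 nM CFT-8634 (low) control wells, derives from mean Alexa 647 contrast in central nuclei by high-content imaging. MV4-11 cells had 24 h compound exposure at 37° C. before PFA fixation, Triton permeabilisation and anti-BRD9 E4Q3F immunostaining.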

Setting [1] is: MV4-11, Assay protocol 2, read-out: Dmax.

For the compound `CCC(C)(C)/C=C(\C#N)C(=O)N1CCc2c(CN3CCN(Cc4c(OC)cc(-c5cn(C)c(=O)c(C)c5C)cc4OC)CC34CC4)cccc2C1C` (mixture of isomers) [Compound B117, (E/Z)-2-(5-((7-(2,6-dimethoxy-4-(1,4,5-trimethyl-6-oxo-1,6-dihydropyridin-3-yl)benzyl)-4,7-diazaspiro[2.5]octan-4-yl)methyl)-1-methyl-1,2,3,4-tetrahydroisoquinoline-2-carbonyl)-4,4-dimethylhex-2-enenitrile], the DC50 (Assay protocol 2) was in the range of 1.25 to 10 nM. For the same compound, under setting [1], the Dmax is greater than 75%.
Taken in the same sequence, the figures for `COc1cc(-c2cn(C)c(=O)c(C)c2C)cc(OC)c1CN(C)Cc1ccc2c(c1)[C@@H](C(C)C)N(C(=O)/C(C#N)=C/C(C)(C)C)CC2` (single isomer, unassigned) [Compound C89] were 10 to 25 nM and 40 to 70%.
For `COc1cc(-c2cn(C)c(=O)c(C)c2C)cc(OC)c1CN1CCN(Cc2cccc3c2CCN(C(=O)/C(C#N)=C/C2(C(F)(F)F)CCC2)C3C)C2(CC2)C1` (mixture of isomers) [Compound B160, (E/Z)-2-[5-[[7-[[2,6-dimethoxy-4-(1,4,5-trimethyl-6-oxo-3-pyridyl)phenyl]methyl]-4,7-diazaspiro[2.5]octan-4-yl]methyl]-1-methyl-3,4-dihydro-1H-isoquinoline-2-carbonyl]-3-[1-(trifluoromethyl)cyclobutyl]prop-2-enenitrile], in that order: 1.25 to 10 nM and greater than 75%.
For `COc1cc(-c2cn(C)c(=O)c(C)c2C)cc(OC)c1CN1CCN(Cc2cccc3c2CCN(C(=O)/C(C#N)=C/C(C)(C)CF)C3C(C)C)CC12CC2` (mixture of isomers) [Compound C25, (E/Z)-2-(5-((4-(2,6-dimethoxy-4-(1,4,5-trimethyl-6-oxo-1,6-dihydropyridin-3-yl)benzyl)-4,7-diazaspiro[2.5]octan-7-yl)methyl)-1-isopropyl-1,2,3,4-tetrahydroisoquinoline-2-carbonyl)-5-fluoro-4,4-dimethylpent-2-enenitrile], in that order: 1.25 to 10 nM and greater than 75%.
Regarding `COc1cc(-c2cn(C)c(=O)c(C)c2C)ccc1OC1CCN(Cc2cccc3c2CCN(C(=O)/C(C#N)=C\C(C)(C)C)C3C)C(C)(C)C1` (stereo not shown) [Compound C58], the DC50 (Assay protocol 2) lay within 10 to 25 nM. Also, the Dmax under setting [1] is greater than 75%.
Consider `COc1cc(-c2cn(C)c(=O)c(C)c2C)cc(OC)c1CN1CCN(Cc2cccc3c2CCN(C(=O)/C(C#N)=C/C2CCOC2)C3C)C2(CC2)C1` (mixture of isomers) [Compound B173, (E/Z)-2-(5-((7-(2,6-dimethoxy-4-(1,4,5-trimethyl-6-oxo-1,6-dihydropyridin-3-yl)benzyl)-4,7-diazaspiro[2.5]octan-4-yl)methyl)-1-methyl-1,2,3,4-tetrahydroisoquinoline-2-carbonyl)-3-(tetrahydrofuran-3-yl)acrylonitril], for which, under “Assay protocol 2”, the greatest degradation seen (Dmax) entry is listed as “+++ (+++ = ≥75%)” and the DC50 is less than 1.25 nM.
Regarding `COc1cc(-c2cn(C)c(=O)c3[nH]ncc23)cc(OC)c1CN1CCN(C(=O)/C(C#N)=C/C(C)(C)C)CC1` [Compound B215, (E/Z)-2-(4-(2,6-dimethoxy-4-(6-methyl-7-oxo-6,7-dihydro-1H-pyrazolo[3,4-c]pyridin-4-yl)benzyl)piperazine-1-carbonyl)-4,4-dimethylpent-2-enenitrile], the DC50 (Assay protocol 2) lay in the range of 25 to 1000 nM. Also, the Dmax under setting [1] lay within 40 to 70%.
For `COc1cc(-c2cn(C)c(=O)c(C)c2C)cc(OC)c1CN1CCCN(Cc2cccc3c2CCN(C(=O)/C(C#N)=C/C(C)(C)CF)[C@@H]3C(C)C)CC1` (mixture of isomers) [Compound C84, (E/Z)-2-(5-((4-(2,6-dimethoxy-4-(1,4,5-trimethyl-6-oxo-1,6-dihydropyridin-3-yl)benzyl)-1,4-diazepan-1-yl)methyl)-1-isopropyl-1,2,3,4-tetrahydroisoquinoline-2-carbonyl)-5-fluoro-4-dimethylpent-2-enenitrile], the DC50 (Assay protocol 2) fell in the range of 1.25 to 10 nM. In addition, under setting [1], the Dmax is greater than 75%.
Consider `COc1cc(-c2cn(C)c(=O)c(C)c2C)ccc1OC1CCN(Cc2cccc3c2CCN(C(=O)/C(C#N)=C/C(C)(C)C)C3C)C2(CC2)C1` (mixture of isomers) [Compound C72, (E/Z)-2-(5-((7-(2-methoxy-4-(1,4,5-trimethyl-6-oxo-1,6-dihydropyridin-3-yl)phenoxy)-4-azaspiro[2.5]octan-4-yl)methyl)-1-methyl-1,2,3,4-tetrahydroisoquinoline-2-carbonyl)-4,4-dimethylpent-2-enenitrile], for which, for the setting “Assay protocol 2”, the half-maximal degradation concentration (DC50) was in the range of 25 to 1000 nM. The maximal degradation (Dmax) under setting [1] is greater than 75%.
Taken in the same sequence, the figures for `COc1cc(-c2cn(C)c(=O)c(C)c2C)cc(OC)c1CN1CCN(Cc2cccc3c2CCN(C(=O)/C(C#N)=C/C(C)(C)C)[C@H]3C(C)C)C2(CC2)C1` (single isomer, unassigned) [Compound C78, (E/Z)-2-(5-((7-(2,6-dimethoxy-4-(1,4,5-trimethyl-6-oxo-1,6-dihydropyridin-3-yl)benzyl)-4,7-diazaspiro[2.5]octan-4-yl)methyl)-1-isopropyl-1,2,3,4-tetrahydroisoquinoline-2-carbonyl)-4,4-dimethylpent-2-enenitrile] were less than 1.25 nM and greater than 75%.
Regarding `COc1cc(-c2cn(C)c(=O)c(C)c2C)cc(OC)c1CN1CCN(Cc2cccc3c2CCN(C(=O)/C(C#N)=C/C(C)C)C3C(C)C)CC1` (mixture of isomers) [Compound C22, (E/Z)-2-(5-((4-(2,6-dimethoxy-4-(1,4,5-trimethyl-6-oxo-1,6-dihydropyridin-3-yl)benzyl)piperazin-1-yl)methyl)-1-isopropyl-1,2,3,4-tetrahydroisoquinoline-2-carbonyl)-4-methylpent-2-enenitrile], the DC50 (Assay protocol 2) was 1.25 to 10 nM. For the same compound, the maximal degradation (Dmax) under setting [1] is greater than 75%.
For the compound `COc1cc(-c2cn(C)c(=O)c(C)c2C)cc(OC)c1CN1CCN(Cc2cccc3c2CCN(C(=O)/C(C#N)=C\C(C)(C)CF)C3C(C)C)[C@@H](C)C1` (single isomer, unassigned) [Compound C26], the DC50 (Assay protocol 2) lay within 10 to 25 nM. Besides, the Dmax under setting [1] was greater than 75%.
Regarding `COc1cc(-c2cn(C)c(=O)c(C)c2C)cc(OC)c1CN1CCN(Cc2cccc3c2CCN(C(=O)/C(C#N)=C/C(C)(C)C)C3)C2(CC2)C1` [Compound C2, (E/Z)-2-(5-((7-(2,6-dimethoxy-4-(1,4,5-trimethyl-6-oxo-1,6-dihydropyridin-3-yl)benzyl)-4,7-diazaspiro[2.5]octan-4-yl)methyl)-1,2,3,4-tetrahydroisoquinoline-2-carbonyl)-4,4-dimethylpent-2-enenitrile], the DC50 (Assay protocol 2) was 1.25 to 10 nM. Further, the maximal degradation (Dmax) under setting [1] is greater than 75%.
In the case of `COc1cc(-c2cn(C)c(=O)c(C)c2C)cc(OC)c1CN1CCN(Cc2cccc3c2CCN(C(=O)/C(C#N)=C/C(C)(C)C)C3C)C(=O)C1(C)C` (mixture of isomers) [Compound B112, (E/Z)-2-(5-((4-(2,6-dimethoxy-4-(1,4,5-trimethyl-6-oxo-1,6-dihydropyridin-3-yl)benzyl)-3,3-dimethyl-2-oxopiperazin-1-yl)methyl)-1-methyl-1,2,3,4-tetrahydroisoquinoline-2-carbonyl)-4,4-dimethylpent-2-enenitrile], the 50% degradation concentration (DC50) (Assay protocol 2) is 10 to 25 nM. Moreover, the Dmax under setting [1] is greater than 75%.
Taken in the same sequence, the figures for `COc1cc(-c2cn(C)c(=O)c(C)c2C)cc(OC)c1CN1CCC(Cc2cccc3c2CCN(C(=O)/C(C#N)=C/C(C)(C)C)[C@H]3C)CC1` (single isomer, unassigned) [Compound C59, (E/Z)-2-(5-((1-(2,6-dimethoxy-4-(1,4,5-trimethyl-6-oxo-1,6-dihydropyridin-3-yl)benzyl)piperidin-4-yl)methyl)-1-methyl-1,2,3,4-tetrahydroisoquinoline-2-carbonyl)-4,4-dimethylpent-2-enenitrile] were 1.25 to 10 nM and 40 to 70%.
Taken in the same sequence, the figures for `COc1cc(-c2cn(C)c(=O)c(C)c2C)cc(OC)c1CN1CCN(Cc2cccc3c2CCN(C(=O)/C(C#N)=C/C(C)(C)CF)[C@@H]3C)C2(CC2)C1` (single isomer, unassigned) [Compound B196, (E/Z)-2-(5-((7-(2,6-dimethoxy-4-(1,4,5-trimethyl-6-oxo-1,6-dihydropyridin-3-yl)benzyl)-4,7-diazaspiro[2.5]octan-4-yl)methyl)-1-methyl-1,2,3,4-tetrahydroisoquinoline-2-carbonyl)-5-fluoro-4,4-dimethylpent-2-enenitrile] were 1.25 to 10 nM and 70 to 75%.
For `COc1cc(-c2cn(C)c(=O)c(C)c2C)cc(OC)c1CN1CCN(Cc2cccc3c2CCN(C(=O)C(C#N)=CC24CC(OC)(C2)C4)C3C)C2(CC2)C1` (mixture of isomers) [Compound B191, (E/Z)-2-(5-((7-(2,6-dimethoxy-4-(1,4,5-trimethyl-6-oxo-1,6-dihydropyridin-3-yl)benzyl)-4,7-diazaspiro[2.5]octan-4-yl)methyl)-1-methyl-1,2,3,4-tetrahydroisoquinoline-2-carbonyl)-3-(3-methoxybicyclo[1.1.1]pentan-1-yl)acrylonitrile], in that order: less than 1.25 nM and greater than 75%.

The values are drawn from patent US20260092061A1, “COMPOUNDS FOR TARGETED PROTEIN DEGRADATION” (Amphista Therapeutics Limited, priority 2022, published 2026).
